Laboratory results published in patent US12227492B1, “Pyrimidine nucleosides as anticancer agents against pancreatic cancer” (Florida A&M University, priority 2021, dated 2025).
Where a name gives a salt, the structure may show the parent alone. Read-outs that look alike come from different tables or passages of the source.

Tests used:
[1] = tested on: MiaPaCa-2 cells; assay: In vitro cell migration (wound) assay; assay type: cell-based; details: 2, 5 and 10 μM, after 48 h, compared with 5-FU, GemHCl
Procedure: A uniform scratch was made in 90% confluent monolayer culture of MiaPaCa-2 cells and the extent of closure was monitored under microscope and photographed. […] Migrated cells within the scratch were quantified and the distance of migration measured using NIH ImageJ software. […] Over the same incubation time, the cells in the control group (48 h) migrated farther achieving a complete or near closure of the wounds. The results are expressed as the means (±SEM, N=4) relative to the control.
Cell migration assay was conducted to determine the effect of on 5-FU, GemHCl, XYZ-I-71 and XYZ-I-73 MiaPaCa-2 cell motility. Ibidi cell culture inserts were used to generate two confluent monolayers of cells separated by a “wound” for this assay. The cells were seeded in 24-well plates at a cell density of 2.5×10^5, for 24 h at 37° C. At 75% confluency, cells formed adherent monolayers on either side of the tissue culture insert. Prior to treatment, the cells were serum-starved by replacing complete media with base media (DMEM) and then further incubated for 24 hours. After serum starving, the insert was gently removed to generate a gap or “wound’ between the two confluent layers of cells. The monolayers were washed with experimental media and afterwards cells were exposed to varying concentrations of 5-FU, GemHCl, XYZ-I-71 and XYZ-I-73 (1, 2, 5 and 10 μM). […]

[2] = tested on: MiaPaCa-2 pancreatic cancer cell line; assay: In vitro cell viability studies (resazurin/Alamar Blue); assay type: cell-based; details: for IC50: Homo sapiens, MIA PaCa-2, MiaPaCa-2, 48 hr incubation
Procedure: Prior to viability studies, Dulbecco's modified Eagle medium (DMEM) with high glucose and L-glutamine was supplemented with 10% fetal bovine serum (FBS) and 1% penicillin-streptomycin (PenStrep). Briefly, MiaPaCa-2 cells were seeded at a density of 1×10^3 per well in 96-well plates in triplicates for each drug concentration level and incubated at 5% CO2 and temperature of 37° C. At 70-75% confluence, MiaPaCa-2 cells were treated with compounds XYZ-I-71, XYZ-I-73, 5-Fluorouracil (5-FU), Gemcitabine (Gem) and Irinotecan. Varying concentrations of 4NSG was prepared from its stock solution with growth medium. For 5-Fluorouracil (5-FU), Gemcitabine Hydrochloride (GemHCl) and Irinotecan, a stock solution was prepared with phosphate-buffered saline (PBS) and serially diluted with growth medium to prepare varied concentrations: thus 3, 6, 12, 25, and 100 μM. Cells was treated with 100 μL of each drug concentration in triplicates and incubated for 48 hr. At termination, 20 μL of 0.05% resazurin sodium salt (Alamar Blue®) was added and incubated at optimum conditions (5% CO2, 37° C.) for 4 hr. Fluorimetric analysis was determined at excitation wavelength of 560/580 nm and emission wavelength of 590/610 nm and the percent viable cells per concentration was calculated. For statistical analysis, results are presented as mean±SD. Data were analyzed for significance by one-way ANOVA, using GraphPad Prism 5 Software and IC50 values were determined.

[3] = Log P; assay type: physicochemical
[4] = mean ± SD, read-out: IC50 (μM) against MiaPaCa-2 cell line as determined by cell viability studies
[5] = read-out: IC50 values, cytotoxic activity against MiaPaCa-2 cancer line

Row | SMILES | IC50 [2, 4] [µM] | logP [3] | number of migrated cells towards the wound [1] | IC50 [2, 5] [µM] | cytotoxic activity against MiaPaCa-2, XYZ-I-73 versus XYZ-I-71 ([2]; MiaPaCa-2, FIG. 7) | efficacy against MiaPaCa-2 cancer line compared with 5-FU (IC50 data) ([2]; MiaPaCa-2)
1 | O=c1[nH]cc(F)c(=O)[nH]1 [Compound 5-FU, 5-Fluorouracil, reference compound] | 51.1 ± 1.1 |  |  |  |  | 
2 | CCc1c2c(nc3ccc(OC(=O)N4CCC(N5CCCCC5)CC4)cc13)-c1cc3c(c(=O)n1C2)COC(=O)[C@]3(O)CC [Irinotecan, reference compound] | 28 ± 1.5 |  |  |  |  | 

The next lines start with results.

Row | IC50 [2, 4] [µM] | logP [3] | SMILES | number of migrated cells towards the wound [1] | IC50 [2, 5] [µM] | cytotoxic activity against MiaPaCa-2, XYZ-I-73 versus XYZ-I-71 ([2]; MiaPaCa-2, FIG. 7) | efficacy against MiaPaCa-2 cancer line compared with 5-FU (IC50 data) ([2]; MiaPaCa-2)
3 | 6.81 ± 2.1 | 3.94 | CCCCCCCCCCCC(=O)Nc1nc(=O)n(C2CCCO2)cc1F (centres unmarked) [XYZ-I-73, N-(5-fluoro-2-oxo-1-(tetrahydrofuran-2-yl)-1,2-dihydropyrimidin-4-yl)dodecanamide] | significantly inhibited | 6.81 ± 1.1 | significant higher cytotoxic activity | greater efficacy
4 | 25.3 ± 1.3 |  | Nc1ccn([C@@H]2O[C@H](CO)[C@@H](O)C2(F)F)c(=O)n1 [GemHCl, Gemcitabine Hydrochloride, reference compound] |  |  |  | 
5 | 13.8 ± 1.7 | 2.27 | CCCCCCCC(=O)Nc1nc(=O)n(C2CCCO2)cc1F (centres unmarked) [XYZ-I-71, N-(5-fluoro-2-oxo-1-(tetrahydrofuran-2-yl)-1,2-dihydropyrimidin-4-yl)octanamide] | significantly inhibited | 13.8 ± 1.1 |  | greater efficacy
